# Experimental data from the SangsterLogP compilation.
# Test: method code SF-HPLC, from DOI: 10.1016/j.bmc.2003.11.030, PMID: 14759727
logD (pH 11.0),logD (pH 7.4),Structure (SMILES)
1.49,,c1ccc2[nH]c(NCCc3c[nH]cn3)nc2c1
0.01,,Nc1ccc2[nH]c(NCCc3c[nH]cn3)nc2c1
,1.81,O=[N+]([O-])c1ccc2[nH]c(NCCc3c[nH]cn3)nc2c1
,3.03,FC(F)(F)c1ccc2[nH]c(NCCCc3c[nH]cn3)nc2c1
0.17,,Nc1ccc2[nH]c(NCCCc3c[nH]cn3)nc2c1
2.26,,Cc1ccc2[nH]c(NCCCc3c[nH]cn3)nc2c1
1.78,,c1ccc2[nH]c(NCCCc3cnc[nH]3)nc2c1
,2.28,CCOC(=O)c1ccc2[nH]c(NCCc3c[nH]cn3)nc2c1
3.93,,CCCCc1ccc2[nH]c(NCCCc3c[nH]cn3)nc2c1
1.44,,c1nc(CCNc2nc3cc4c(cc3[nH]2)OCO4)c[nH]1
1.43,,COc1ccc2[nH]c(NCCc3c[nH]cn3)nc2c1
3.64,,CCCCc1ccc2[nH]c(NCCc3c[nH]cn3)nc2c1
,2.31,Clc1ccc2[nH]c(NCCc3c[nH]cn3)nc2c1
,2.82,FC(F)(F)c1ccc2[nH]c(NCCc3c[nH]cn3)nc2c1

Structure (SMILES),logD (pH 11.0),logD (pH 7.4)
CNC(=O)c1ccc2[nH]c(NCCc3c[nH]cn3)nc2c1,0.48,
